Key:
[1] = Stability / water uptake of the solid state forms on exposure to relative humidity; type: physicochemical
[2] = Apparent water solubility and dissolution of the solid state forms

Compound: CN1CCN(CCCCN2C(=O)CN(/N=C/c3ccc(-c4ccc(Cl)cc4)o3)C2=O)CC1.Cl.Cl [anhydrate, (E)-1-[[[5-(4-chlorophenyl)-2-furanyl]methylene]amino]-3-[4-(4-methyl-1-piperazinyl)butyl]-2,4-imidazolidinedione dihydrochloride]
- hygroscopicity (water uptake) ([1]; room temperature, 85% relative humidity, up to 4 weeks): no evidence of water uptake
- solubility as per the USP definition of solubility [2]: freely soluble
- solubility ([2]; water): 160 mg/mL

Compound: CN1CCN(CCCCN2C(=O)CN(/N=C/c3ccc(-c4ccc(Cl)cc4)o3)C2=O)CC1.Cl.Cl [hemi-hydrate, (E)-1-[[[5-(4-chlorophenyl)-2-furanyl]methylene]amino]-3-[4-(4-methyl-1-piperazinyl)butyl]-2,4-imidazolidinedione dihydrochloride]
- water content stability ([1]; room temperature, relative humidity range of 12% to 85% RH): stable
- dissolution rate compared with the anhydrate form ([2]; water): more rapid
- solubility ([2]; water, apparent water solubility, room temperature): ~170 mg/mL

Compound: CN1CCN(CCCCN2C(=O)CN(/N=C/c3ccc(-c4ccc(Cl)cc4)o3)C2=O)CC1.Cl.Cl [isopropanol solvate, (E)-1-[[[5-(4-chlorophenyl)-2-furanyl]methylene]amino]-3-[4-(4-methyl-1-piperazinyl)butyl]-2,4-imidazolidinedione dihydrochloride]
- solid form conversion on humidity exposure ([1]; 85% relative humidity): converts to the anhydrate form within days to weeks
- stability upon exposure to humidity ([1]; exposure to humidity): not stable
- apparent water solubility ([2]; water, room temperature, dihydrochloride): 220 mg/mL

Source: patent US9035052B2, “Compositions of azimilide dihydrochloride” (WARNER CHILCOTT COMPANY, LLC, priority 2006, dated 2015)
